US8669291B2, “Phenyl substituted cycloalkylamines as monoamine reuptake inhibitors” (Sunovion Pharmaceuticals Inc., priority 2007, dated 2014)

Legend:
[1] = biological target: T1, Norepinephrine Transporter (NET) (Mus musculus, UniProt O55192); test: ex vivo [3H] nisoxetine binding to NET sites in mouse brain; conditions: mice, 60 minutes after treatment
T1 construct: Cortical membranes (400 μL; equivalent to 6.0 mg wet weight of tissue/tube); from tissue; host or cells: frontal cortex of C57BL/6 mice
Method: Receptor occupancy of central noradrenaline (NA), 5-HT and dopamine (DA) transporter sites following peripheral administration of compounds was determined using [^3H] nisoxetine, [^3H] citalopram and [^3H] WIN 35428 binding, respectively. Liquid scintillation counting was used to quantify the radioactivity.
C57BL/6 mice (25-30 g) were dosed orally with either vehicle or compound at 4 dose levels. Mice were sacrificed 60 minutes after treatment. Whole brains were removed and cortex and striata dissected out before being frozen on dry ice. The brain tissue was stored at −20° C. until the day of the assay. The cortex from each hemisphere was frozen separately. One was used to determine occupancy of NA transporter sites and the other occupancy of 5-HT transporter sites. Striatum was used to determine occupancy of DA transporter sites.
Frontal cortex from each hemisphere or striata was homogenized individually in ice-cold assay buffer using a tight fitting glass/Teflon homogenizer and used immediately in the binding assay.
Cortical membranes (400 μL; equivalent to 6.0 mg wet weight of tissue/tube) were incubated with 50 μL of [^3H] nisoxetine at a single concentration of 0.6 nM and either 50 μL of buffer (total binding) or 50 μL of mazindol (1 μM; non-specific binding) for 4 h at 4° C. For each animal, three tubes were used for the determination of total binding and three tubes were used for the determination of non-specific binding.
Membrane bound radioactivity was recovered by filtration under vacuum through Skatron 11731 filters, presoaked in 0.5% PEI, using a Skatron cell harvester. Filters were rapidly washed with ice-cold phosphate buffer and radioactivity (dpm) was determined by liquid scintillation counting (1 mL Packard MV Gold scintillator).
A value for specific binding (dpm) was generated by the subtraction of mean non-specific binding (dpm) from mean total binding (dpm) for each animal. Data are presented as mean specific binding (dpm) and as a percentage of the vehicle-treated control taken as 100%.

[2] = tested on: rats; test: Rat Forced Swim Test; assay type: in vivo; conditions: PO
Text: The method, which detects antidepressant activity, followed that described by Porsolt et al (Eur. J. Pharmacol., 47: 379-391 (1978)) and modified by Lucki et al. (Psychopharm, 121: 66-72 (1995)). Rats forced to swim in a situation from which they cannot escape rapidly become immobile. Antidepressants decrease the duration of immobility. […] Selective NE reuptake inhibitors decrease immobility by increasing climbing behaviors whereas selective 5-HT reuptake inhibitors decrease immobility by increasing swimming behaviors.
Rats were individually placed in a cylinder (Height=40 cm; Diameter=20 cm) containing 22 cm water (25° C.) for 15 minutes on the first day of the experiment (Session 1) and were then put back in the water 24 hours later for a 5 minute test (Session 2). The sessions were videotaped and duration of immobility as well as swimming and climbing behaviors during the 5 minute test were measured. Twelve rats were tested in each group. The test was performed blind. Compounds were typically evaluated at 3 doses (1-30 mg/kg), administered orally 2 times: 24 hours and 30-60 minutes before the test (Session 2), and compared with a vehicle control group. Desipramine (20 mg/kg i.p.), administered under the same experimental conditions, was used as the positive reference substance.
Data were analyzed by one way analysis of variance (ANOVA) followed by post-hoc comparisons where appropriate. An effect will be considered significant if p<0.05. Data are represented as the mean and standard error to the mean (s.e.m.).

[3] = tested on: 6-OHDA lesioned rat; test: 6-OHDA-lesioned rat Parkinson's disease model, paw placing test; assay type: in vivo
Method: The effects of compound 4 alone and in combination with L-DOPA were evaluated in the rodent 6-OHDA-lesioned rat Parkinson's disease model. The method, which detects antiparkinson activity (reversal of motor deficits and akinesia), follows that described by Henry et al. (Exp Neurol, 151(2): 334-42, 1998).
Animal Preparation: Prior to surgery, rats were administered pargyline (5 mg/kg, ip) and desipramine (25 mg/kg ip) to optimize subsequent 6-OHDA availability and increase specificity for toxicity to dopaminergic neurons. Rats were then anesthetized with isoflurane and placed in a stereotaxic frame. After exposure of Bregma, a burr hole was drilled in the skull above the right median forebrain bundle at co-ordinates: 2.8 mm posterior and 2 mm lateral to Bregma (according to the atlas of Paxinos and Watson, 1986). […]
Paw Placing Test: The paw placing test assesses correct placing of each forepaw in response to a sensory stimulus. […] The test was quantified as the percentage of successful placing responses of the limb contralateral to the side of the 6-OHDA lesion. […]
Drug Administration: For the monotherapy experiment, the effects of 5 different treatments were assessed: 1) vehicle (sterile water, PO), 2) 3 mg/kg compound 4 (PO), 3) 10 mg/kg compound 4 (PO), 4) 30 mg/kg compound 4 and 5) 6.5 mg/kg (IP) of the positive reference substance, L-DOPA. […]

T1 sequence (O55192 whole entry): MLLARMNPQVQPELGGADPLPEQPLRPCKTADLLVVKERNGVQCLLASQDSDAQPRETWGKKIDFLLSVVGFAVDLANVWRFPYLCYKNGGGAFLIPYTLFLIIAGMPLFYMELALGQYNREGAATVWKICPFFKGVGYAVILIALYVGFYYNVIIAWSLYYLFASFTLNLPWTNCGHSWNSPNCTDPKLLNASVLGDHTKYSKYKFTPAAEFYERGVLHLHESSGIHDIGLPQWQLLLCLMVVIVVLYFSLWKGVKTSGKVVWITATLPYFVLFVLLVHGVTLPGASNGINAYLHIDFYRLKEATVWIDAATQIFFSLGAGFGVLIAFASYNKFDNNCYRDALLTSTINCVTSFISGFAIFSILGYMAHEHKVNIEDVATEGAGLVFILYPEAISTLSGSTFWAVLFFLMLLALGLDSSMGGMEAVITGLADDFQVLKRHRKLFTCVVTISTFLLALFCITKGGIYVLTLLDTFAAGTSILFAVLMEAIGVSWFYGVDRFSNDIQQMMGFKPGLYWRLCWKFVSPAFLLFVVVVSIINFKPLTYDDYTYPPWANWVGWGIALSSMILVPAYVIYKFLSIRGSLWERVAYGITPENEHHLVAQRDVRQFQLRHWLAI

| Compound | % Transporter Occupancy, NET ([1]; 1 mg/kg PO) [%] | % Transporter Occupancy, NET ([1]; 3 mg/kg PO) [%] | % Transporter Occupancy, NET ([1]; 10 mg/kg PO) [%] | % Transporter Occupancy, NET ([1]; 30 mg/kg PO) [%] | Rat Forced Swim (Means ± S.E.M.) Climbing ([2]; 1 mg/kg) | Rat Forced Swim (Means ± S.E.M.) Immobility ([2]; 1 mg/kg) | Rat Forced Swim (Means ± S.E.M.) Swimming ([2]; 1 mg/kg) | Rat Forced Swim (Means ± S.E.M.) Climbing ([2]; 3 mg/kg) | Rat Forced Swim (Means ± S.E.M.) Immobility ([2]; 3 mg/kg) | Rat Forced Swim (Means ± S.E.M.) Swimming ([2]; 3 mg/kg) | Rat Forced Swim (Means ± S.E.M.) Climbing ([2]; 10 mg/kg) | Rat Forced Swim (Means ± S.E.M.) Immobility ([2]; 10 mg/kg) | Rat Forced Swim (Means ± S.E.M.) Swimming ([2]; 10 mg/kg) | paw placement performance ([3]; 10 mg/kg, PO in combination with low dose L-DOPA, FIG. 6) | performance in the paw placement task ([3]; alone, 3-30 mg/kg, PO) |
| --- | --- | --- | --- | --- | --- | --- | --- | --- | --- | --- | --- | --- | --- | --- | --- |
| CN(C)C[C@@H]1CCCC[C@@]1(O)c1ccc(Cl)c(Cl)c1 (single isomer, unassigned) [Compound 2, cis-1-(3,4-dichlorophenyl)-2-((dimethylamino)methyl)cyclohexanol] | 19 | 44 | 74 | 89 | ## (11-20 (##)) | +++ (>41 (+++)) | * (1-5 (*)) | # (1-10 (#)) | +++ (>41 (+++)) | * (1-5 (*)) | ### (>21 (###)) | + (1-20 (+)) | ** (6-9 (**)) |  |  |
| CNC[C@@H]1CCCC[C@@]1(O)c1ccc(Cl)c(Cl)c1 [Compound 4] |  |  |  |  |  |  |  |  |  |  |  |  |  | significantly increased paw placement performance | little or no improvement in performance |
